Here are results for three compounds from patent US20180340001A1, “Probes for 18F Positron Emission Tomography Imaging” (The Texas A&M University System, priority 2017, published 2018).

For data set [1] the following is noted: pH 7.5.
The nature of data set [2]: MicroPET/CT imaging, in vivo stability in nude mice. The conditions noted are these: for free [18F]-fluoride signal / release in vivo: murine model, up to 3 hours post-injection. As for the experimental part:
(§1) The stability of [^18F]-1 was first investigated in phosphate buffer solution (1×PBS). […] The stability of [^18F]-1 was further evaluated in a murine model. The probe [^18F]-1 (0.1 mCi) was injected into female nude mice and static microPET scans were obtained at 3 hours after the injection.
MicroPET imaging were acquired at 3 h post injection. For PET image acquiring, a female nude mouse was injected with 0.1 mCi of [^18F]-1 via the tail vein. At 3 hour post injection, the mouse was anesthetized using isoflurane (2% in oxygen), then placed into imaging chambers equipped with a heated coil to maintain body temperature and gas anesthesia. The static microPET acquisitions were then achieved and reconstructed for analysis.

Data set [3] is described as follows: In vitro stability of [18F]-1 in 1×PBS by radio-HPLC. It is filed as physicochemical. The conditions noted are these: incubation time 3 hours. As for the experimental part: as §1
After HPLC purification, [^18F]-1 was re-injected into HPLC for a radio profile standard. Then, the probe was added with 10×PBS to reconstruct the solution to IX PBS and 0.1 N NaOH to adjust pH to 7, respectively. After 1 hour and 3 hours incubation, a fraction of [^18F]-1 was injected into HPLC. The radio purity was calculated based on the integration of the product peak and other minor peaks.

For the compound `Cn1cc[n+](C)c1[P-](F)(F)(F)(F)F` [Compound 1, IMe-PF5], in data set [1], the “free fluoride signal / release of free fluoride” value is “not observed” and the “hydrolytic stability (in words)” value is given as “highly water stable”. In addition, the “free [18F]-fluoride signal / release in vivo” value in data set [2] (listed as IMe-PF5) is on record as “not observed”.
For the compound `Cn1cc[n+](C)c1[P-](F)(F)(F)(F)c1ccccc1` [Compound 2, (NHC)PF4Ph], in data set [1], the “hydrolytic stability (in words)” value is reported as “highly water stable” and the “pseudo-first order rate constant (kobs) of hydrolysis” value turned out to be 2.3e-05 min⁻¹.
With `Cn1cc[n+](C)c1[P-](F)(F)(F)(F)F` [[^18F]-1], in data set [3], the “radiochemical purity after incubation” value is greater than 98%. Also, the “localization in microPET/CT images” value in data set [2] (female nude mice, 0.1 mCi via tail vein, static scan 3 h after injection) is listed as “obvious localization in the bladder”. Moreover, the bone uptake result in data set [2] (female nude mice, 0.1 mCi, 3 h post-injection) is reported as “No bone uptake was observed”. Moreover, the route of clearance result in data set [2] (female nude mice, 0.1 mCi, microPET/CT 3 h after injection) is recorded as “cleared through the urinary track”. Also, the “free [18F]-fluoride signal / release in vivo” value in data set [2] is recorded as “insignificant”; in data set [2] (listed as 18F—PFS-carbene), “not observed”.
